# The source made the active and inactive calls.
# Tests used:
# Galanin receptor type 3 = biological target: T1, Galanin receptor type 3 (Homo sapiens, UniProt O60755); test: Fluorescence-based cell-based primary high throughput dose response assay to identify antagonists of the Galanin Receptor 3 (GalR3).; type: functional
# T1 sequence (O60755 whole entry): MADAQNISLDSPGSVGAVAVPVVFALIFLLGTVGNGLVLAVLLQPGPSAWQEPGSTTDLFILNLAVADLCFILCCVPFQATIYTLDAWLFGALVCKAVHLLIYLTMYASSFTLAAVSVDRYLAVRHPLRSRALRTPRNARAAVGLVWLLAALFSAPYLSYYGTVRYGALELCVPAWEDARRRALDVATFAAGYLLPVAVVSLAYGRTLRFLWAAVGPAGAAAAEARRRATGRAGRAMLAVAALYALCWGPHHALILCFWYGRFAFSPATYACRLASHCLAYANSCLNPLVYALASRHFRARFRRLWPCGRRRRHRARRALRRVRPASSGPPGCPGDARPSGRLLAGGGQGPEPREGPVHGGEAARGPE
# cells = type: functional, cell-based; conditions: HEK-CNG
# [1] = biological target: T2, High affinity choline transporter 1 (Homo sapiens, UniProt Q9GZV3); test: CHT inhibitors, dose response, cell-based, 10-point CRC, membrane potential dye (AID 588401); type: functional;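 also: membrane potential dye fluorescence of choline-evoked depolarization via CHT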
# T2 sequence (Q9GZV3 whole entry): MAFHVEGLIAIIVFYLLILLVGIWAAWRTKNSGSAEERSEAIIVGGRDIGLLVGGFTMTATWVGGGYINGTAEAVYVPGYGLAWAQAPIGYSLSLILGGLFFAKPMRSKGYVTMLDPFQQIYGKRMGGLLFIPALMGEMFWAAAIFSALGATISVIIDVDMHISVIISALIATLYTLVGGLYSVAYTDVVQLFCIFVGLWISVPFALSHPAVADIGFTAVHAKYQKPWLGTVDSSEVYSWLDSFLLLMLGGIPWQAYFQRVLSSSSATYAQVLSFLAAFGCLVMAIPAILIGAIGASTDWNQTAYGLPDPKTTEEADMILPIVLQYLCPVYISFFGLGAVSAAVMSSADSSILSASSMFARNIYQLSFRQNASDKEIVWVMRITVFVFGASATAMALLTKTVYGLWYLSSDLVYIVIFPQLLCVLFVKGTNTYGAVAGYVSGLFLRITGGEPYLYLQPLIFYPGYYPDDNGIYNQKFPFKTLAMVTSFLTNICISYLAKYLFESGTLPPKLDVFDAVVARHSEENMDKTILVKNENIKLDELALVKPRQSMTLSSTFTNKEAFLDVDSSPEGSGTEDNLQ
# [2] = biological target: T2, High affinity choline transporter 1; test: CHT inhibitors, dose response, cell-based, 5-point CRC, membrane potential dye (AID 504840); type: functional
# [3] = biological target: T3, Apoptotic protease-activating factor 1 (Homo sapiens, UniProt O14727); test: SAR analysis of small molecule Activators of Apaf-1 in a Fluorescent assay.; type: functional; conditions: read-out: EC50_Mean;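 also: caspase-3 cleavage of fluorogenic Rh110 DEVD substrate downstream of apoptosome activation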
# T3 sequence (O14727 whole entry): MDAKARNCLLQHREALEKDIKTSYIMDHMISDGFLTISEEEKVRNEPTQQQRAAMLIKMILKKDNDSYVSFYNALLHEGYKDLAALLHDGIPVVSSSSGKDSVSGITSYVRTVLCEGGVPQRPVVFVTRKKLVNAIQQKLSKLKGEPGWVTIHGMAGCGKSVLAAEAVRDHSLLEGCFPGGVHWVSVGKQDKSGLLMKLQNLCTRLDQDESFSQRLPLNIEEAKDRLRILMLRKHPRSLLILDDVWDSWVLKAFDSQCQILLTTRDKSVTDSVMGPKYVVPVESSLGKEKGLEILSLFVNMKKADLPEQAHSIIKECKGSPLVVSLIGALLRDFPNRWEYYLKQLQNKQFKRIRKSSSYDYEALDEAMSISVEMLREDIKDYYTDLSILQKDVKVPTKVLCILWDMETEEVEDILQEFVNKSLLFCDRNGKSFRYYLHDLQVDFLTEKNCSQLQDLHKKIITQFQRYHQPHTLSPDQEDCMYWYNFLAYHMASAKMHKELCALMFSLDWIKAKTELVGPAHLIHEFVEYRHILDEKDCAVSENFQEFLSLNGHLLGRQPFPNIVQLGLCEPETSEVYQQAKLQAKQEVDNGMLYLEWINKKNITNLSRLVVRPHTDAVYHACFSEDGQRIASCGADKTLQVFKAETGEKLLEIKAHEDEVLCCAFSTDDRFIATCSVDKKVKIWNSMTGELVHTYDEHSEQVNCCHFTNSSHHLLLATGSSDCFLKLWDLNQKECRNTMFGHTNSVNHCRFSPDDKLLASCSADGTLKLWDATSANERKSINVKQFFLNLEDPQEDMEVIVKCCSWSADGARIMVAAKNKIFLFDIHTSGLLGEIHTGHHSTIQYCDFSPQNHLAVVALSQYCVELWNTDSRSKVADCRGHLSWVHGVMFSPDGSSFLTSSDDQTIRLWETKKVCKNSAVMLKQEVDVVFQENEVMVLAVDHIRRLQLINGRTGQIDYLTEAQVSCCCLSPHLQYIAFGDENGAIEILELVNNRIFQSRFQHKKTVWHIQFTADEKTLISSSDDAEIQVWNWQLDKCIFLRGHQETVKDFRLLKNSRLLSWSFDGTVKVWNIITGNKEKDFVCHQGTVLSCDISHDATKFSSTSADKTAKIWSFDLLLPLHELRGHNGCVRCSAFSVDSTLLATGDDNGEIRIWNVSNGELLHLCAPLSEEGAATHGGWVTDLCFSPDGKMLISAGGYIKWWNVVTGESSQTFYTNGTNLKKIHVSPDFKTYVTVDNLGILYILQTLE
# [4] = biological target: Ras and Rab interactor 1/Tyrosine-protein kinase ABL1 (Homo sapiens, UniProt P00519+Q13671); type: functional;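 also: biochemical TR-FRET dose-response test measuring inhibition of binding between Rin1 and Abl proteins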
# Sequence of Ras and Rab interactor 1/Tyrosine-protein kinase ABL1 (P00519 whole entry): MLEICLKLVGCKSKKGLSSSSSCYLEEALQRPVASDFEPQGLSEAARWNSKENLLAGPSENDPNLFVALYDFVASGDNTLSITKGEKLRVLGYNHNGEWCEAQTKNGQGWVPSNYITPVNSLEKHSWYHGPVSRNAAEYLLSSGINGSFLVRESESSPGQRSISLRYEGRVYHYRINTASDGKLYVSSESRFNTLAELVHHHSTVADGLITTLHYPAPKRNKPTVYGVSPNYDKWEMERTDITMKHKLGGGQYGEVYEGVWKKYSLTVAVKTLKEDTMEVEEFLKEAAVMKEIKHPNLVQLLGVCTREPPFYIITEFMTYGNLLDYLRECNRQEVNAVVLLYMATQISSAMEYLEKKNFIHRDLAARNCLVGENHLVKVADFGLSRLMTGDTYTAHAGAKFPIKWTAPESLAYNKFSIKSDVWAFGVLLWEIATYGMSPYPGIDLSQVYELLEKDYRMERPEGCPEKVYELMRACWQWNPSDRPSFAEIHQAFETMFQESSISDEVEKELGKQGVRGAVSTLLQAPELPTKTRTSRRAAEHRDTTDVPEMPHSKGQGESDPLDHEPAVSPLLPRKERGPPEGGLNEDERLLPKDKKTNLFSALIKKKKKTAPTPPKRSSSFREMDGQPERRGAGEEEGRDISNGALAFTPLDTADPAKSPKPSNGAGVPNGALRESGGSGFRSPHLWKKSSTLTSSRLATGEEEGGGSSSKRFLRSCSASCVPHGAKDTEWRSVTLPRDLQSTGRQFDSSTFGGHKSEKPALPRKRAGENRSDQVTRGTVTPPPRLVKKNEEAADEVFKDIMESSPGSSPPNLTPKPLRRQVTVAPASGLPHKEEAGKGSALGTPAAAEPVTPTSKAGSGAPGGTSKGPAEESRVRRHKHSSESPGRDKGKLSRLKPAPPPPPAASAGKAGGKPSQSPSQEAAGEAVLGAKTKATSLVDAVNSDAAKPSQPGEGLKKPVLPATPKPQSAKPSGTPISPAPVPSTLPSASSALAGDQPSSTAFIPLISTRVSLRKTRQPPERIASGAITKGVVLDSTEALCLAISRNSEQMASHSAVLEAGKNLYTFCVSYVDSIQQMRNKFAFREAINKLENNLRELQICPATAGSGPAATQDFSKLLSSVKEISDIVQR
# Sequence of Ras and Rab interactor 1/Tyrosine-protein kinase ABL1 (Q13671 whole entry): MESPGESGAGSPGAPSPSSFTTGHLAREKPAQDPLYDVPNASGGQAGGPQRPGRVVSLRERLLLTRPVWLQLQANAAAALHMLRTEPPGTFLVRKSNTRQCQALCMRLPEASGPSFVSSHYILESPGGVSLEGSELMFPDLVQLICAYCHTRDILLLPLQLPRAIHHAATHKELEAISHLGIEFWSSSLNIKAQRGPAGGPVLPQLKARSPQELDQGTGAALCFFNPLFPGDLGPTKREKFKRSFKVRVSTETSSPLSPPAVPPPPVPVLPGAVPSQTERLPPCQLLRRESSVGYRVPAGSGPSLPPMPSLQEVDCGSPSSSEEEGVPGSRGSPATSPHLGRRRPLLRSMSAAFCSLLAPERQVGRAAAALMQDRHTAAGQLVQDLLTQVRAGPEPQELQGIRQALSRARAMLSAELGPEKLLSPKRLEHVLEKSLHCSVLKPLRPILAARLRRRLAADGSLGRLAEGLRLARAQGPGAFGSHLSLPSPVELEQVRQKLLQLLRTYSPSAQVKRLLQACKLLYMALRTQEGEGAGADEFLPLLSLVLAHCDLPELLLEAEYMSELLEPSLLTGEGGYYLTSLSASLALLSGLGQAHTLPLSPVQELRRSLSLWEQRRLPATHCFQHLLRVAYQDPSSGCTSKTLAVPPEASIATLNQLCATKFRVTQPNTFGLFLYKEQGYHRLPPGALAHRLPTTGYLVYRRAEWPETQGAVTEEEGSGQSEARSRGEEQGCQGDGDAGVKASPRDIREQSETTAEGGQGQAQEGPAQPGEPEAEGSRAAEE
Compound,IC50 [1],IC50 [2],also measured
COc1ccc(C2=NN(c3nc(C(=O)O)cs3)C(O)(C(F)(F)F)C2)c(OC)c1 (stereo not drawn),4.74 µM (active),7.18 µM (active),IC50 (Galanin receptor type 3): 10 µM (inactive); EC50 (cells): > 29.9 µM (inactive)
O=C(O)CC(CCc1ccccc1)NC(=O)c1ccco1 (stereo not drawn),,,EC50 [3]: > 100 µM (inactive)
Cc1cc(C)c(NC(=O)c2ccc[n+](Cc3ccc([N+](=O)[O-])cc3)c2)c(C)c1,1.5 µM (active),3.67 µM (active),
CC(OC(=O)c1ccccc1NCCO)C(=O)Nc1ccnn1C(C)C (stereo not drawn),,,IC50 [4]: 3.98 µM (active)

# Source: ChEMBL document CHEMBL1201862, “PubChem BioAssay data set” (2004)
